Assay results taken from patent US20260256728A1, “TREATMENT FOR ASYMPTOMATIC STARGARDT DISEASE PATIENTS” (priority 2024, published 2026).

Experiments:
[1] = TEASE-1 plasma gildeuretinol (replacement of plasma vitamin A); assay type: in vivo, human; details: for percentage of gildeuretinol over total vitamin A (as retinol+gildeuretinol): plasma, 8-week pharmacokinetic analysis
Experimental: The Tolerability and Effects of gildeuretinol acetate in Stargardt Disease (Clinical trial group 1, also known as TEASE-1) was a 24-month, multicenter, double-masked, placebo-controlled trial designed to evaluate the efficacy and safety of daily oral gildeuretinol acetate in slowing the growth of atrophic retinal lesions in Stargardt disease patients. The trial was conducted at multiple sites in the United States (NCT02402660).
Patients 12 years or older, clinically diagnosed with Stargardt disease, with at least one ABCA4 mutation, at least one eye presenting with well-demarcated areas of reduced fundus autofluorescence including retinal atrophic lesions, and with any visual acuity, were enrolled.
Patients were randomized to gildeuretinol acetate 14 mg capsules, gildeuretinol acetate 24 mg capsules, or placebo capsules, to be taken once daily for one year. After one year, 50% of randomly selected patients receiving placebo were crossed over in a 1:1 ratio to gildeuretinol acetate 14 mg capsules or gildeuretinol acetate 24 mg capsules for a second year.
Gildeuretinol acetate and placebo capsules were identical appearing capsules. Patients were advised to avoid vitamin A-containing supplements and liver-based products. Fruits and vegetables could be consumed without limitation. Trial visits occurred at 8 weeks and 6, 12, 18, and 24 months following screening and randomization.

[2] = TEASE-3 plasma gildeuretinol; assay type: in vivo, human; details: 14 mg daily
Experimental: (§1) The tolerability and effects of ALK-001 (gildeuretinol acetate) in Stargardt Disease (Clinical trial group 3, also known as TEASE-3) study was an open-label, multicenter, case control study designed to evaluate the efficacy and safety of gildeuretinol acetate on the progression of Stargardt disease in asymptomatic individuals. The trial was conducted at multiple sites in the United States.
To assess the safety and efficacy of gildeuretinol acetate in preventing vision loss in asymptomatic individuals, gildeuretinol acetate 14 mg capsules were administered to individuals showing early signs of retinal damage while maintaining approximately 20/20 vision and no subjective loss of vision. […] Based on the above family history and clinical observations, the asymptomatic individuals were likely to develop retinal lesions, loss of photoreceptors, drops in retinal sensitivity, loss of visual acuity, indicating the onset of symptoms, i.e. a progression to the symptomatic phase, including vision loss within two years, mirroring the progression observed in their older siblings.
Patients received gildeuretinol acetate 14 mg capsules, to be taken orally once daily. Trial visits occurred every 6 months approximately following screening and treatment start visits.

[3] = system: asymptomatic Stargardt disease patients; test: TEASE-3 retinal sensitivity by fundus-tracking microperimetry; assay type: in vivo, human
Experimental: FIG. 4 is a graph showing mean retinal sensitivity (dB) over time in three asymptomatic Stargardt disease patients taking gildeuretinol acetate 14 mg daily. Lines show mean retinal sensitivity of both eyes. Lines are piecewise linear regressions with a knot time of 12 months. Each symbol represents a retinal sensitivity measurement for each eye. Patient 1 retinal sensitivity was measured with a Nidek MP-1 (Nidek, Gamagori, Japan). Patients 2 and 3 retinal sensitivity was measured with the Center Vue Macular Integrity Assessment or MAIA (CenterVue, Padova, Italy).
as §1
Patients received gildeuretinol acetate 14 mg capsules, to be taken orally once daily. […]
Disease progression was monitored by best-corrected visual acuity (BCVA) reported in number of Early Treatment Diabetic Retinopathy Study (ETDRS) letters, fundus autofluorescence (FAF) imaging, loss of photoreceptors (as measured by the ellipsoid zone band loss) by optical coherence tomography (OCT) and retinal sensitivity by microperimetry. […]

[4] = in vivo

Question: Which “replacement of plasma vitamin A sustained throughout the treatment period” value ([1]; 14 or 24 mg daily, 24 months) does the source give for [2H]C([2H])([2H])C(/C=C/C=C(C)/C=C/C1=C(C)CCCC1(C)C)=C\COC(C)=O [gildeuretinol acetate] here?
Answer: greater than 80%

Question: And the “patients in whom over 80% of plasma vitamin A was replaced” value ([1]; after six months)?
Answer: 39 out of 40

Question: And the “serum vitamin A replaced with gildeuretinol” value ([1]; daily doses approximately 14 to 24 mg, within a matter of weeks)?
Answer: more than 80%

Question: And the “total plasma vitamin A and retinoic acid (combined vitamin A and gildeuretinol-derived forms) versus placebo group” value ([1]; in vivo)?
Answer: the same

Question: And the “percentage of gildeuretinol over total vitamin A (as retinol+gildeuretinol)” value ([1]; 14 mg cohort)?
Answer: 87%

Question: What about the “percentage of gildeuretinol over total vitamin A (as retinol+gildeuretinol)” value ([1]; 24 mg cohort) of the same molecule?
Answer: 92%

Question: What about the “replacement of plasma vitamin A sustained throughout the treatment period” value [2] of the same molecule?
Answer: Over 80%

Question: What about the “replacement of plasma vitamin A (retinol) with gildeuretinol” value ([2]; after the first two months, all three participants) of the same molecule?
Answer: 80%

Question: What about the “change of mean retinal sensitivity” value ([3]; first year of treatment) of the same molecule?
Answer: −3.1±1.5 dB/year

Question: What about the “average rate of retinal sensitivity improvement” value ([3]; following years of treatment) of the same molecule?
Answer: +0.93±0.7 dB/year

Question: What about the “Patients experiencing event (%): Ear infection” value [4] of the same molecule?
Answer: 1 (10.0)

Question: What about the “Patients experiencing event (%): Gastroenteritis viral” value [4] of the same molecule?
Answer: 0

Question: And the “Patients experiencing event (%): Herpes zoster” value [4]?
Answer: 0

Question: What about the “Patients experiencing event (%): Skin infection” value [4] of the same molecule?
Answer: 0

Question: And the “Patients experiencing event (%): Upper respiratory tract infection” value [4]?
Answer: 2 (20.0)

Question: What about the “changes in visual acuity” value [4] of the same molecule?
Answer: No changes in visual acuity were observed

Question: What about the “discontinuation of treatment due to side effects” value [4] of the same molecule?
Answer: no patient discontinued treatment due to side effects

Question: What about the “serious adverse events associated with treatment” value [4] of the same molecule?
Answer: No serious adverse events

Question: And the “severity of adverse events” value [4]?
Answer: mild or moderate
